Entries after “also recorded” stand apart in the source; their conditions may differ.
Legend:
[1] = tested on: murine HSCs (LKS CD150+CD48−); assay: Mitochondrial membrane potential by TMRM staining and flow cytometry in cultured mHSCs; assay type: cell-based, mouse; settings: compared to Basal condition; NR 500 uM, Vit B12 (MC) 100 uM; day 3 of culture
Protocol: Flow cytometry analysis was performed on freshly isolated bone marrow (BM) from C57BI6 mice. BM was extracted from crushed femora and tibia. Cell suspension was filtered through a 70 μm cell strainer and erythroid cells were eliminated by incubation with red blood cell lysis buffer (eBioscences). Isolation and stains were performed in ice-cold PBS 1 mM EDTA. Lineage positive cells were then removed with a magnetic lineage depletion kit (BD biosciences). Cell suspensions were then stained with specific antibodies for the stem cell compartment and sorted by FACS (BD FACS Aria III) into 1.5 ml Eppendorf tubes.
The following antibodies were used in this study: rat mAbs against cKit (2B8), Sca1 (D7), CD150 (TC-15-12F12.2), CD48 (HM48-1). The antibodies were purchased from Biolegend, eBiosciences and BD. A mixture of biotinylated mAbs against CD3, CD11b, CD45R/B220, Ly-6G, Ly-6C and TER-119 was used as lineage marker (“lineage cocktail”) and was purchased from BD. DAPI or propidium iodine (PI) staining was used for live/dead cell discrimination.
Murine HSCs were sorted into 1.5 ml Eppendorf tubes and were cultured in Stemline II (SIGMA) supplemented with 100 ng/ml SCF (R&D) and 2 ng/ml Flt3 (R&D). This was defined as the basal condition. Different concentrations as indicated of NR and Vit B12 (MC) were added in specific wells. NR was supplemented every 24 hours.
Mouse HSCs already in culture were incubated at 37° C. for 1 hour with 200 nM tetramethylrhodamine methyl ester (TMRM; Invitrogen) and 100 nM Mitotracker green. Cells were then washed with FACS buffer and analysed by flow cytometry on a BD LSR II.
Freshly FACS sorted mHSCs (LKS CD150+CD48−) were cultured in basal media (Stemline+SCF+FLT3L) supplemented with UroA, NR and MC in specific wells (as indicated). Cells were harvested at day 3 and stained with tetramethylrhodamine methyl ester (TMRM; to measure mitochondria membrane potential) and Mitotracker (to measure mitochondrial mass), and analysed by flow cytometry.

human HSCs = settings: culture media supplemented with nicotinamide riboside, primary and secondary recipient humanised mice; cited from earlier work

SMILES: C/C1=C2/[N-][C@H]([C@H](CC(N)=O)[C@@]2(C)CCC(=O)NC[C@@H](C)OP(=O)([O-])O[C@H]2[C@@H](O)[C@@H](n3cnc4cc(C)c(C)cc43)O[C@@H]2CO)[C@]2(C)N=C(/C(C)=C3N=C(/C=C4N=C1[C@@H](CCC(N)=O)C\4(C)C)[C@@H](CCC(N)=O)[C@]\3(C)CC(N)=O)[C@@H](CCC(N)=O)[C@]2(C)CC(N)=O.[CH3-].[Co] [MC, methylcobalamine]
- TMRM fluorescent intensity (Mean Fluorescence Intensity, MFI) [1]: significantly decreased; also recorded: decreases
- proportion of cells in the TMRM low gate [1]: significantly increased; also recorded: increases

SMILES: NC(=O)c1ccc[n+]([C@@H]2O[C@H](CO)[C@@H](O)[C@H]2O)c1 [NR, Nicotinamide riboside]
- TMRM fluorescent intensity (Mean Fluorescence Intensity, MFI) [1]: significantly decreased; also recorded: decreases
- proportion of cells in the TMRM low gate [1]: significantly increased; also recorded: increases
- levels of engraftment (human HSCs): significantly higher levels of engraftment
- long-term blood production (human HSCs): capable of sustaining long-term blood production

From patent US20230365933A1, “COMPOSITIONS AND METHODS FOR INCREASING STEM CELL FUNCTION” (SOCIETE DES PRODUITS NESTLE S.A., priority 2020, published 2023)
